In article PMC8924211 (Nature Communications, 2022):
Substitutions are numbered along the chain they refer to.

What was measured:
Assay in all cases: Calcium assay, HEK293/Gα16 cells, GAL2R mutants
Format in all cases: cell-based
[1] = target: T1, GAL2R mutants (Homo sapiens, UniProt O43603, H102A); settings: GAL2R H1023.29A
T1 construct: expressed in transfected cells; host or cells: HEK293
T1 sequence (O43603 1-387 H102A): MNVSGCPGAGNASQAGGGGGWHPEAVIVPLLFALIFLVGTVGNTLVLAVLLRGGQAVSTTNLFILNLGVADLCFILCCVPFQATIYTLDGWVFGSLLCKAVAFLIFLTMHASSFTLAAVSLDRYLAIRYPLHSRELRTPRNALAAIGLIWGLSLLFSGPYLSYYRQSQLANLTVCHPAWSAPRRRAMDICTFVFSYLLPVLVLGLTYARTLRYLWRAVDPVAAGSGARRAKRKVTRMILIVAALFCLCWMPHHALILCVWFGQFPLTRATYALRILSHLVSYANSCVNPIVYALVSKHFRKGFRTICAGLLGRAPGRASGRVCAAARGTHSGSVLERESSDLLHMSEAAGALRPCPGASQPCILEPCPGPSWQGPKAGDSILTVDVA

[2] = target: T2, GAL2R mutants (Homo sapiens, UniProt O43603, L266A); settings: GAL2R L266ECL3A
T2 construct: expressed in transfected cells; host or cells: HEK293
T2 sequence (O43603 1-387 L266A): T1 sequence (O43603 1-387 H102A) with A102H, L266A

[3] = target: T3, GAL2R mutants (Homo sapiens, UniProt O43603, L169A); settings: GAL2R L169ECL2A
T3 construct: expressed in transfected cells; host or cells: HEK293
T3 sequence (O43603 1-387 L169A): T1 sequence (O43603 1-387 H102A) with A102H, L169A

[4] = target: T4, GAL2R mutants (Homo sapiens, UniProt O43603, L255A); settings: GAL2R L2556.54A
T4 construct: expressed in transfected cells; host or cells: HEK293
T4 sequence (O43603 1-387 L255A): T1 sequence (O43603 1-387 H102A) with A102H, L255A

[5] = target: T5, GAL2R mutants (Homo sapiens, UniProt O43603, R184A); settings: GAL2R R1845.35A
T5 construct: expressed in transfected cells; host or cells: HEK293
T5 sequence (O43603 1-387 R184A): T1 sequence (O43603 1-387 H102A) with A102H, R184A

[6] = response of 100 μM spexin compared to WT, mean ± S.E.M.

Q: How did the Emax ([1]; response of 100 μM spexin compared to WT) turn out when spexin was run?
A: NR (NR, no response, refers to response < 10% compared to WT receptor (spexin at 100 μM))

Q: What about the Emax ([1]; spexin, replicate 1) of the same substance?
A: no response

Q: And the Emax ([1]; spexin, replicate 2)?
A: no response

Q: And the Emax ([1]; spexin, replicate 3)?
A: no response

Q: What about the Emax [2, 6] of the same substance?
A: 103.14±6.2%

Q: And the EC50 ([2]; spexin, replicate 1)?
A: 25.14 µM

Q: And the Emax ([2]; spexin, replicate 1)?
A: 98.5714%

Q: And the EC50 ([2]; spexin, replicate 2)?
A: 15.28 µM

Q: And the Emax ([2]; spexin, replicate 2)?
A: 95.5224%

Q: What about the EC50 ([2]; spexin, replicate 3) of the same substance?
A: 11.99 µM

Q: And the Emax ([2]; spexin, replicate 3)?
A: 115.328%

Q: And the Emax [3, 6]?
A: 94.58±11.1%

Q: And the EC50 ([3]; spexin, replicate 1)?
A: 7.173 µM

Q: And the Emax ([3]; spexin, replicate 1)?
A: 77.1819%

Q: And the EC50 ([3]; spexin, replicate 2)?
A: 5.137 µM

Q: And the Emax ([3]; spexin, replicate 2)?
A: 91.205%

Q: And the Emax ([3]; spexin, replicate 3)?
A: 115.35%

Q: What about the Emax [4, 6] of the same substance?
A: 26.65±5.9%

Q: What about the Emax ([4]; spexin, replicate 1) of the same substance?
A: 16.7892%

Q: And the EC50 ([4]; spexin, replicate 2)?
A: 0.2454 µM

Q: And the Emax ([4]; spexin, replicate 2)?
A: 26.0726%

Q: And the EC50 ([4]; spexin, replicate 3)?
A: 0.8451 µM

Q: What about the Emax ([4]; spexin, replicate 3) of the same substance?
A: 37.0775%

Q: What about the Emax [5, 6] of the same substance?
A: 32.36±1.6%

Q: What about the EC50 ([5]; spexin, replicate 1) of the same substance?
A: 0.3712 µM

Q: And the Emax ([5]; spexin, replicate 1)?
A: 29.7886%

Q: And the EC50 ([5]; spexin, replicate 2)?
A: 0.9731 µM

Q: What about the Emax ([5]; spexin, replicate 2) of the same substance?
A: 32.1089%

Q: What about the EC50 ([5]; spexin, replicate 3) of the same substance?
A: 10.58 µM

Q: What about the Emax ([5]; spexin, replicate 3) of the same substance?
A: 35.1728%
